Data on 4 compounds can be found in patent publication US8334413B2, “Topical compositions and methods for epithelial-related conditions” (Signum Biosciences, Inc., priority 2004, dated 2012).

For data set [1], the system named is TPA-induced neutrophil infiltration. The data set can be described thus: TPA-induced neutrophil infiltration, neutrophil counting assay (histology). The conditions noted are these: 24 hours. Type of data set: in vivo, mice. The method, then: Neutrophil Counting Assay: Ear punches buffered in 10% formalin in PBS at ambient temperature for a minimum of 24 hrs. were sectioned and stained with Hematoxilin & Eosin (“H&E”). The number of neutrophils, identified by their multilobular nuclei, in 6 randomly 100× magnified fields distributed along the length of the ear were manually counted. The results are expressed as the average number per field for each ear.
(§1) Two micrograms of TPA in 20 μl of acetone was applied onto both ears of each mouse to induce neutrophil infiltration. […] After 24 hours, the mice were sacrificed.

Data set [2] deals with delayed-type hypersensitivity. The data set can be described thus: DNFB delayed-type hypersensitivity, mouse ear. Type of data set: in vivo, mice. The settings on record: AFC 0.5 hr before or 15 min after DNFB challenge, assay 5 hr later. From the text:
The mouse ear model, described above, is modified to assay the effect of anti-inflammatory agents in an immune based inflammation model (See Tramposch, K. M., Skin Inflammation, in In Vivo Models of Inflammation, M. L. Morgan D W, Editor. 1999, Birkhauser Verlag. p. 179-20 and Chapman, J. R., Z. Ruben, and G. M. Butchko, Histology of and quantitative assays for oxazolone-induced allergic contact dermatitis in mice. Am J Dermatopathol, 1986. 8(2): p. 130-8). In this model, a sensitizing dose of dinitrofluorobenzene (“DNFB”) 1-3% in acetone is applied topically according to a modification of the method by Back et al. (See Back, O. and T. Egelrud, Topical glucocorticoids and suppression of contact sensitivity. A mouse bioassay of anti-inflammatory effects. Br J Dermatol, 1985. 112(5): p. 539-45 and Bailey, S. C., et al., A novel contact hypersensitivity model for rank-ordering formulated corticosteroids. Inflamm Res, 1995. 44 Suppl 2: p. S162-3) to the shaved bellies of mice to elicit an immune response. Mice are challenged on day 5 with 40 μl of 0.5-1% DNFB to each ear. […] The ears are assayed for edema or neutrophil infiltration 5 hr later. Dexamethasone is used as a positive control. Five days later, the ears are challenged topically with a dose of DNFB insufficient to produce contact irritation. Simultaneously, cell infiltration studies are initiated. […]

Data set [3] deals with TPA-induced MPO activity. The data set can be described thus: TPA-induced neutrophil infiltration, MPO assay. The class given is in vivo, Swiss Webster male mice. The method, then: Neutrophil-infiltration Assay: Swiss Webster male mice (n=6) were treated with 1 μg/20 μl of TPA as described above in order to assess whether or not TPA induced neutrophil infiltration. Acetone was used as a control. TPA was administered as described above. The mice were returned to their cages for 24 hrs to allow neutrophil infiltration, then sacrificed by cervical dislocation. The ears were immediately removed for punch biopsy, and punches were fixed for subsequent histological analysis and MPO enzymatic assay.
MPO Assay: This assay measures myeloperoxidase, (“MPO”) which is packaged in the primary granules of mature granulocytes including the neutrophil. Thus, the amount of MPO in the ear is proportional to the number of infiltrating neutrophils.
MPO enzyme activity of the ears was assayed using the technique detailed by Griffiths and coworkers (1988). To conduct the assay, each ear was homogenized in 1.0 ml of cetyltrimethylammonium bromide buffer for 5 sec using a Pro 200 tissue blender (Pro Scientific, Inc., Oxford, Conn.) at setting 5. These samples were then centrifuged for 5 minutes at 15,000 rpm in a 5415 Eppendorf microcentrifuge. Triplicate 20 microliter aliquots of supernatant were added to 200 microliters of reaction mixture (1.25 ml 1M Potassium Phosphate, 4.175 mg o-dianisidine dihydrochloride and 5 μl of 1% peroxide in a final volume of 25 ml). Absorbance at 450 nm was then measured at room temperature at three 60 second intervals using Bio-Kinetics Reader EL 312E (Bio-Tek Instruments). Activity, which was determined by a Bradford assay of the homogenate (BioRad Protein Assay, BioRad Laboratories, Inc. Hercules, Calif.) was expressed as units MPO per mg tissue +/−standard error.
as §1

Data set [4] concerns neutrophil, macrophage, and platelet responses. The conditions noted are these: cited from earlier work.
For data set [5], the target named is membrane-associated polyisoprenoid methyl transferase (Homo sapiens, UniProt O60725). The conditions noted are these: cited from earlier work.
In a further data set the test system is chronic irritation. The data set can be described thus: Chronic irritation by multiple TPA applications, mouse ear. The settings on record: AFC in acetone, applied 6 hr apart on days 7, 8 and 9; TPA days 0, 2, 4, 7, 9. The class given is in vivo, mice. The method, then: The effectiveness of the inventive compositions against established chronic irritation is assayed using a modification of the technique of Stanley P L et al., Mouse skin inflammation induced by multiple topical application 12-O-tetradeconoyphorbol-13-acetate. Skin Pharmacol. 1991, 4: p 262-271. (1991). Both ears of each mouse are treated with TPA in acetone, as above, in a series of 5 applications on the mornings of days 0, 2, 4, 7, and 9. […] Punches of the ears are taken the afternoon of the tenth day and prepared, as above, for the edema assay and the infiltration of neutrophils. Total granulocyte infiltration is assayed by measuring MPO activity. Macrophage infiltration is determined immunocytologically using the MOMA-2 antibody. Hydrocortisone, which is known to reduce inflammatory edema granulation infiltration and microphage infiltration, is used as a positive control.

A further data set has as its system TPA-induced erythema. The data set can be described thus: TPA-induced erythema, mouse ear. Type of data set: in vivo. The conditions noted are these: 1 μg/20 μl TPA, 1 mg/20 μl AFC after 1 hour, photo 23 hours later. The method, then:
For this example, both ears of a mouse were treated with a 1 μg/20 μl dose of TPA in acetone. […] The photo was taken 23 hours later using a Nikon D70 digital camera.

In data set [6] the test system is TPA-induced MPO activity. The data set can be described thus: TPA-induced MPO activity at different application times. The class given is in vivo, mice. The settings on record: 1 μg/20 μl TPA; 1 mg/20 μl AFC at various times before and after TPA. The method, then:
In this example, both ears of six mice were treated with a 1 μg/20 μl dose of TPA in acetone.

For the next data set, the system named is human skin. The data set can be described thus: SDS irritant patch test on human skin, AFC pre-applied. Type of data set: in vivo. The conditions noted are these: 140 mM AFC aqueous formulation pre-applied. The method, then: An irritant was applied to the middle of the upper back of a human subject using a 0.2 ml 20% SDS solution and a Hill-Top Chamber patch with Webril pad. […] Patches 1a and 2a were removed after 2 hours, while patches 1b and 2b were removed after 2 hours and 30 minutes. High levels of irritation were visible in patch sites 2a and 2b.

A further data set concerns TPA-induced edema. The experiment in a line: TPA-induced edema, murine ear acute contact irritation model. Type of data set: in vivo, mice. The conditions noted are these: 2 μg TPA/20 μl acetone, AFC 15 min later, topical, 5.5 hours. The method, then:
In order to assess the effects of the inventive composition on TPA-induced edema, 2 μg of TPA in 20 μl acetone was applied with the aid of a micropipetter onto both ears of each of 6 mice. The mice were returned to their cages. […] 20 μl of an acetone vehicle was applied similarly to the left ear of each mouse as an internal negative control. After treatment, the mice were returned to their cages for 5.5 hours. The mice were sacrificed by cervical dislocation. The ears were immediately removed at their base and a 6 mm diameter punch biopsy was taken from the center of each ear. The ear punch was weighed on an analytical balance for edema measurements as described above.

In data set [7] the test system is mouse ear. The data set can be described thus: AFC in acetone alone, mouse ear edema (irritancy). Type of data set: in vivo, mice. The settings on record: topical, dose up to 32 mg/20 μl, 5.5 hours. The method, then: The AFC inventive compositions were spread evenly with a pipette tip. Each contralateral ear was treated with only acetone in the same manner. The mice then were returned to their cages. After 5.5 hours, mice were sacrificed and 6 mm punches were taken from each ear and weighed. Edema response was expressed as the percent increase in the treated ear's weight over the untreated (acetone, vehicle only) ear.

Data set [8] concerns TPA-induced MPO activity. The experiment in a line: TPA-induced MPO activity in the contralateral vehicle-treated ear (systemic effect). Type of data set: in vivo, mice.
Method: These included dexamethasone, a steroid, and indomethasone, a non-steroid anti-inflammatory drug, which targets cycloxygenases. The action of AFC in this model was, therefore, compared to that of dexamethasone and indomethasone. Each of these agents were tested using the same protocols used to test AFC.
Data set [9] has as its system mouse ear. The experiment in a line: TPA dose response, mouse ear edema. The settings on record: TPA 0.25 to 1.75 μg/20 μl in acetone, topical, 5.5 hours, 6 mm ear punch. The class given is in vivo, Swiss Webster mice. The method, then:
Increasing concentrations of TPA dissolved in acetone were applied with the aid of a micropipetter onto the right ear of each of the five 6-8 week old, male Swiss Webster mice used in this analysis. Ten microliters were spread evenly onto the inner and outer surfaces using the pipette tip. The mice were then returned to their cages. The contralateral ear was treated only with acetone. After 5.5 hours, the mice were sacrificed and 6 mm punches were taken from each ear and weighed. Edema response was expressed as a percent increase in the treated ear's weight over the untreated ear. The dose response curve, as well as an ED50 value, was determined using the Lichtfield method (Lichtfield J T W. F., A simplified method of evaluating dose-effect experiments, Journal of Pharmacology and Experimental Therapeutics, 1948, 96: P. 99-113).

[10] abbreviates: 2 μg TPA/20 μl acetone, AFC 15 min later, topical, 24 hours.

membrane-associated polyisoprenoid methyl transferase, sequence (O60725 whole entry): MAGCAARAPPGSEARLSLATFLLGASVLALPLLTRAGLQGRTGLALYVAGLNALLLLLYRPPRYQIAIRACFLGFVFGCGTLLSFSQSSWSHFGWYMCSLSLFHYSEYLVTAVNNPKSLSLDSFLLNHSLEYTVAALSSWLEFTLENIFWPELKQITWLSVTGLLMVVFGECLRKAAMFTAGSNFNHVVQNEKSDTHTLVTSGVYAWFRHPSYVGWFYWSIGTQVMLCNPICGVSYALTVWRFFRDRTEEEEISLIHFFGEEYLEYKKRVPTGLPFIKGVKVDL

With `CC(=O)N[C@@H](CSCC=C(C)CCC=C(C)CCC=C(C)C)C(=O)O` (stereo in doubt) [AFC, N-acetyl-S-farnesylcysteine], the “reduction in dermal neutrophils (counted)” value in data set [1] (1.0 mg/20 μl AFC, TPA irritation, statistically significant) was determined as 80%. Also, in data set [1] (TPA pretreated ears, H&E), the “neutrophils observed histologically in AFC treated ear” value is “substantial reduction of neutrophils”. In addition, in data set [2], the “edema (DNFB challenge)” value is recorded as “effective in reducing” and the “neutrophil infiltration (DNFB challenge)” value is “effective in reducing”. Also, in the data set with TPA-induced MPO activity [3] (setting [10]), the “ED50, inhibition of TPA-induced MPO activity” value is recorded as 0.065 mg/20 μl and the “inhibition of TPA-induced increases in MPO activity” value was > 80%. For the same compound, the “inflammation activity of AFC on its own in the Neutrophil-Infiltration Assay” value in the data set with TPA-induced MPO activity [3] (AFC alone) is recorded as “no inflammation activity of its own”. The “neutrophil, macrophage, and platelet responses in vitro” value in data set [4] is “block some”. In data set [5], the “inhibition of membrane-associated polyisoprenoid methyl transferase” value is “inhibit”. In addition, in the data set on chronic irritation, the chronic edema entry is “reduces” and the “neutrophil number (chronic irritation)” value is given as “reduces”. In the data set with TPA-induced erythema, the TPA-induced erythema entry is on record as “observed an effect”. Besides, the “effect on TPA-induced MPO activity versus time of application” value with TPA-induced MPO activity [6] was “efficacy of AFC treatment prior to, simultaneous with, or after exposure of skin to TPA”. Further, the “skin irritation at patch site 1a” value with human skin (20% SDS patch removed after 2 hours) was “normal skin”. Besides, the “skin irritation at patch site 1b” value with human skin (20% SDS patch removed after 2 hours and 30 minutes) is reported as “mild response”. Moreover, in the data set with TPA-induced edema, the “maximum reduction in TPA-induced edema” value was determined as 80%. Besides, the “edema response (ear punch biopsy weight), AFC alone” value in the data set on mouse ear [7] was “no effect”. The “MPO activity in contralateral vehicle-treated ear (systemic effect)” value (shortened to “MPO activity … (systemic effect)”) in the data set on TPA-induced MPO activity [8] (topical, increasing concentration on the other ear, TPA on both ears) is recorded as “no effect”.

As to `C[C@@H]1C[C@H]2[C@@H]3CCC4=CC(=O)C=C[C@]4(C)[C@@]3(F)[C@@H](O)C[C@]2(C)[C@@]1(O)C(=O)CO` [dexamethasone], the “MPO activity … (systemic effect)” value in the data set with TPA-induced MPO activity [8] (mouse, in vivo) was “increasing inhibition of MPO activity”.

In the case of `COc1ccc2c(c1)c(CC(=O)O)c(C)n2C(=O)c1ccc(Cl)cc1` [indomethasone], the “MPO activity … (systemic effect)” value in the data set on TPA-induced MPO activity [8] (mouse, in vivo) was “increasing inhibition of MPO activity”.

In the case of tetradecanoylphorbol acetate [TPA], the “maximum increase in ear weight” value in the data set on mouse ear [9] is “approximately 150 % of the acetone-treated ear”.
